Biological target: T1, PTP-1B (Homo sapiens, UniProt P18031)
T1 construct: PTP-1B (purified, 1 mg/mL) as a 1:250 dilution
T1 sequence (P18031 1-321 limits assumed): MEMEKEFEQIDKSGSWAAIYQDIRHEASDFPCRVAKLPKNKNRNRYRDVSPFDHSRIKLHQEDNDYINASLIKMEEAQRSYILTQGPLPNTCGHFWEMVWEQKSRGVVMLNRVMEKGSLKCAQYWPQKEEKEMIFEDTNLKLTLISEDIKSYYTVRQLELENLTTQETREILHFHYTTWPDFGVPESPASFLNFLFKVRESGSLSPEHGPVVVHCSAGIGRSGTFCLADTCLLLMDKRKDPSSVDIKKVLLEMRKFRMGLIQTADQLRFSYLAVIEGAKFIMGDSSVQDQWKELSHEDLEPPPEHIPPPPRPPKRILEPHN
Experiment: pNPP tyrosine phosphatase inhibition assay, PTP-1B
Assay type: biochemical
Settings: pNPP assay, PTP-1B; read-out: Activity Class (IC50 ranges)
How it was run: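 Test compounds were screened at two final levels, 31.3 and 10 µM, against 4 µg/mL purified PTP-1B. The substrate was 10 mM p-nitrophenyl phosphate, with incubation for 10 min at 30°C before a K2CO3 quench. Activity was taken from A405.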

IC50 | Compound
250 to 499 nM | O=P(O)(O)C(F)(F)c1ccc(CN(Cc2ccc(C(F)(F)P(=O)(O)O)cc2)S(=O)(=O)c2ccccc2F)cc1 [Compound 83, [(4-{[[4-(Difluoro-phosphono-methyl)-benzyl]-(2-fluoro-benzenesulfonyl)-amino]-methyl}-phenyl)-difluoro-methyl]-phosphonic acid]
> 25000 nM | CCNc1ccc(S(=O)(=O)C(F)(F)F)cc1NC(=O)C1CCN(S(=O)(=O)c2cccs2)CC1 [Compound 88, 1-(Thiophene-2-sulfonyl)-piperidine-4-carboxylic acid (2-ethylamino-5-trifluoromethanesulfonyl-phenyl)-amide]
100 to 249 nM | COc1ccccc1S(=O)(=O)N(Cc1ccc(C(F)(F)P(=O)(O)O)c(Cl)c1)Cc1ccccc1-c1ccccc1 [Compound 168, [(4-{[Biphenyl-2-ylmethyl-(2-methoxy-benzenesulfonyl)-amino]-methyl}-2-chloro-phenyl)-difluoro-methyl]-phosphonic acid]
< 99 nM | O=P(O)(O)C(F)(F)c1ccc(CN(Cc2ccc(-c3cccc(-c4nn[nH]n4)c3)cc2)S(=O)(=O)c2ccc(F)cc2Cl)cc1Cl [Compound 169, {[2-Chloro-4-({(2-chloro-4-fluoro-benzenesulfonyl)-[3′-(2H-tetrazol-5-yl)-biphenyl-4-ylmethyl]-amino}-methyl)-phenyl]-difluoro-methyl}-phosphonic acid]
> 25000 nM | COc1ccccc1S(=O)(=O)N(Cc1ccc(-c2nnn[nH]2)cc1)Cc1ccc(S(C)(=O)=O)cc1 [Compound 115, N-(4-Methanesulfonyl-benzyl)-2-methoxy-N-[4-(1H-tetrazol-5-yl)-benzyl]-benzenesulfonamide]
> 25000 nM | COc1ccccc1S(=O)(=O)N(Cc1ccc(C#N)cc1)Cc1ccc(Nc2c(O)c(=O)c2=O)cc1 [Compound 135, N-(4-Cyano-benzyl)-N-[4-(2-hydroxy-3,4-dioxo-cyclobut-1-enylamino)-benzyl]-2-methoxy-benzenesulfonamide]
> 25000 nM | COc1ccc(S(=O)(=O)N(Cc2ccc(C(=O)C(=O)O)cc2)Cc2ccc(S(C)(=O)=O)cc2)c(OC)c1 [Compound 111, (4-{[(2,4-Dimethoxy-benzenesulfonyl)-(4-methanesulfonyl-benzyl)-amino]-methyl}-phenyl)-oxo-acetic acid]
2500 to 25000 nM | O=P(O)(O)C(F)(F)c1ccc(CN(Cc2ccc(C(F)(F)P(=O)(O)O)cc2)c2ccc(-c3ccccc3)cc2)cc1 [Compound 62, {[4-({Biphenyl-4-yl-[4-(difluoro-phosphono-methyl)-benzyl]-amino}-methyl)-phenyl]-difluoro-methyl}-phosphonic acid]
> 25000 nM | COc1ccc(OC)c(S(=O)(=O)N(Cc2ccc(C(=O)C(=O)O)cc2)Cc2ccc(S(C)(=O)=O)cc2)c1 [Compound 113, (4-{[(2,5-Dimethoxy-benzenesulfonyl)-(4-methanesulfonyl-benzyl)-amino]-methyl}-phenyl)-oxo-acetic acid]
> 25000 nM | COc1ccccc1S(=O)(=O)N(Cc1ccc(OCC(=O)O)c(C(=O)O)c1)Cc1ccccc1-c1ccccc1 [Compound 224, 5-{[Biphenyl-2-ylmethyl-(2-methoxy-benzenesulfonyl)-amino]-methyl}-2-carboxymethoxy-benzoic acid]
100 to 249 nM | COc1ccccc1S(=O)(=O)N(Cc1ccc(C(F)(F)P(=O)(O)O)c(Cl)c1)Cc1ccccc1-c1cccc(C(N)=O)c1 [Compound 186, [(4-{[(3′-Carbamoyl-biphenyl-2-ylmethyl)-(2-methoxy-benzenesulfonyl)-amino]-methyl}-2-chloro-phenyl)-difluoro-methyl]-phosphonic acid]
100 to 249 nM | O=P(O)(O)C(F)(F)c1ccc(CN(Cc2ccccc2-c2ccccc2)S(=O)(=O)c2cnccc2I)cc1Cl [Compound 230, [(4-{[Biphenyl-2-ylmethyl-(4-iodo-pyridine-3-sulfonyl)-amino]-methyl}-2-chloro-phenyl)-difluoro-methyl]-phosphonic acid]
2500 to 25000 nM | O=P(O)(O)C(F)(F)c1ccc(CN(Cc2ccc(C(F)(F)P(=O)(O)O)cc2)c2ccccc2)cc1 [Compound 64, {[4-({[4-(Difluoro-phosphono-methyl)-benzyl]-phenyl-amino}-methyl)-phenyl]-difluoro-methyl}-phosphonic acid]
250 to 499 nM | COc1ccccc1S(=O)(=O)N(Cc1ccccc1)Cc1ccc(C(F)(F)P(=O)(O)O)c(Cl)c1 [Compound 170, [(4-{[Benzyl-(2-methoxy-benzenesulfonyl)-amino]-methyl}-2-chloro-phenyl)-difluoro-methyl]-phosphonic acid]

The remaining lines, values behind:

Compound | IC50
O=P(O)(O)C(F)(F)c1ccc(CN(Cc2ccc(C(F)(F)P(=O)(O)O)cc2)S(=O)(=O)c2cccc3ccccc23)cc1 [Compound 67, [(4-{[[4-(Difluoro-phosphono-methyl)-benzyl]-(naphthalene-1-sulfonyl)-amino]-methyl}-phenyl)-difluoro-methyl]-phosphonic acid] | 2500 to 25000 nM
COc1ccccc1S(=O)(=O)N(Cc1ccc(OCc2nn[nH]n2)cc1)Cc1ccc(S(C)(=O)=O)cc1 [Compound 128, N-(4-Methanesulfonyl-benzyl)-2-methoxy-N-[4-(2H-tetrazol-5-ylmethoxy)-benzyl]-benzenesulfonamide] | > 25000 nM
[(4-{[(3′-Carbamoyl-biphenyl-2-ylmethyl)-(2-methoxy-benzenesulfonyl)-amino]-methyl}-2-chloro-phenyl)-difluoro-methyl]-phosphonic acid [Compound 187] | < 99 nM
O=C(O)c1ccc(CN(Cc2ccc(C(=O)O)c(Br)c2)S(=O)(=O)c2ccccc2)cc1 [Compound 79, 2-bromo-4-([Benzenesulfonyl-(4-carboxybenzyl)-amino]-methyl)-benzoic acid] | > 25000 nM
O=C(O)c1ccc(CN(Cc2ccc(C(=O)O)cc2Br)S(=O)(=O)c2ccccc2)cc1 [Compound 80, 4-([Benzenesulfonyl-(2-bromo-4-carboxybenzyl)-amino]-methyl)-benzoic acid] | > 25000 nM
[(2-Chloro-4-{[(2-chloro-4-fluoro-benzenesulfonyl)-(3′-cyano-biphenyl-4-ylmethyl)-amino]-methyl}-phenyl)-difluoro-methyl]-phosphonic acid [Compound 164] | < 99 nM
3-{4-[({[4-(difluorophosphonomethyl)-3-chlorophenyl]methyl}[(2-methoxyphenyl)sulfonyl]amino)methyl]phenyl}-5-bromobenzoic acid [Compound 195] | < 99 nM
COc1ccccc1S(=O)(=O)N(Cc1ccc(C(F)(F)P(=O)(O)O)c(Cl)c1)Cc1ccccc1-c1cccnc1 [Compound 179, [(2-Chloro-4-{[(2-methoxy-benzenesulfonyl)-(2-pyridin-3-yl-benzyl)-amino]-methyl}-phenyl)-difluoro-methyl]-phosphonic acid] | 100 to 249 nM
COc1ccccc1S(=O)(=O)N(Cc1ccc(C(F)(F)P(=O)(O)O)c(Cl)c1)CC12CC3CC(CC(C3)C1)C2 [Compound 201, (Adamantanylmethyl){[4-(difluorophosphonomethyl)-3-chlorophenyl]methyl}[(2-methoxyphenyl)sulfonyl]amine] | 250 to 499 nM
COc1ccccc1S(=O)(=O)N(Cc1ccc(N(CC(C)C(=O)O)C(=O)C(=O)O)cc1)Cc1ccc(N(CC(C)C(=O)O)C(=O)C(=O)O)cc1 (stereo not drawn) [Compound 223, 3-[(4-{[{4-[(2-Carboxy-propyl)-oxalyl-amino]-benzyl}-(2-methoxy-benzenesulfonyl)-amino]-methyl}-phenyl)-oxalyl-amino]-2-methyl-propionic acid] | > 25000 nM
O=P(O)(O)C(F)(F)c1ccc(CN(Cc2ccc(C(F)(F)P(=O)(O)O)cc2)S(=O)(=O)Cc2ccccc2)cc1 [Compound 69, {[4-({[4-(Difluoro-phosphono-methyl)-benzyl]-phenylmethanesulfonyl-amino}-methyl)-phenyl]-difluoro-methy}-phosphonic acid] | 2500 to 25000 nM
N#Cc1cccc(S(=O)(=O)N(Cc2ccc(C(F)(F)P(=O)(O)O)c(Cl)c2)Cc2ccccc2-c2ccccc2)c1 [Compound 216, [(4-{[Biphenyl-2-ylmethyl-(3-cyano-benzenesulfonyl)-amino]-methyl}-2-chloro-phenyl)-difluoro-methyl]-phosphonic acid] | 250 to 499 nM
O=P(O)(O)C(F)(F)c1ccc(CN(Cc2ccc(C(F)(F)P(=O)(O)O)cc2)S(=O)(=O)C=Cc2ccccc2)cc1 [Compound 75, [(4-{[[4-(Difluoro-phosphono-methyl)-benzyl]-(2-phenyl-ethenesulfonyl)-amino]-methyl}-phenyl)-difluoro-methyl]-phosphonic acid] | 250 to 499 nM
O=P(O)(O)C(F)(F)c1ccc(CN(Cc2ccc(C(F)(F)P(=O)(O)O)c(Br)c2)S(=O)(=O)c2ccc3ccccc3c2)cc1Br [Compound 99, [(2-Bromo-4-{[[3-bromo-4-(difluoro-phosphono-methyl)-benzyl]-(naphthalene-2-sulfonyl)-amino]-methyl}-phenyl)-difluoro-methyl]-phosphonic acid] | < 99 nM
O=[N+]([O-])c1ccc(CN(Cc2ccc(Cl)c(Cl)c2)S(=O)(=O)c2ccccc2Cl)cc1 [Compound 81, 2-Chloro-N-(3,4-dichloro-benzyl)-N-(4-nitro-benzyl)-benzenesulfonamide] | > 25000 nM
COc1ccccc1S(=O)(=O)N(Cc1ccc(C(F)(F)P(=O)(O)O)c(Cl)c1)C(C)c1ccccc1 (stereo not drawn) [Compound 166, [(2-Chloro-4-{[(2-methoxy-benzenesulfonyl)-(1-phenyl-ethyl)-amino]-methyl}-phenyl)-difluoro-methyl]-phosphonic acid] | 2500 to 25000 nM

Reference: patent publication US20060135773A1, “Trisubstituted nitrogen modulators of tyrosine phosphatases” (priority 2004, published 2006)
